This is an account of results in patent US20240352419A1, “METHODS AND COMPOSITIONS FOR DIFFERENTIATION OF PLURIPOTENT STEM CELLS AND DERIVED HEMATOPOIETIC LINEAGE CELLS” (NUWACELL BIOTECHNOLOGIES CO., LTD., priority 2022, published 2024).

The test system of experiment [1] is hiPSCs. Put plainly: Directed differentiation of hiPSCs into HE, HP and iNK cells (flow cytometry KDR, CD34, CD56). The format is cell-based, human. To be noted: for output of CD34+ HP cells / output of CD56+ iNK cells: added during Stage 1-4 (XAV939 5 μM, SB431542 6 μM); for output of CD34+ HP cells: Day 10, vs control, FIG. 8A; for output of CD56+ iNK cells: Day 25, vs control, FIGS. 8B and 8C. How it is done:
hiPSCs were prepared as described in CN108373998B. On Day −1, Embryoid body (EB) formation (Stage 1-1) was carried out by placing individualized hiPSCs in E8 medium containing 10 μM Blebbistatin in T25 flasks on a bellydancer and culture overnight. On Day 0, lateral mesoderm differentiation (Stage 1-2) was initiated by changing the medium to a Stage 1-2 differentiation medium comprising indicated basal medium (see Table 2.1) and supplemented with BMP4 (25 ng/ml), VEGF (50 ng/mL), bFGF (0.5 ng/ml) and CHIR99021 (4 μM) for 2 days. On Day 2, lateral mesoderm differentiation (Stage 1-3) continued for 1 day in a Stage 1-3 differentiation medium comprising indicated basal medium and supplemented with BMP4 (25 ng/mL), VEGF (50 ng/ml) and bFGF (0.5 ng/ml) and CHIR99021 (1 μM). On Day 3, HE specification (Stage 1-4) was initiated by adding a Stage 1-4 differentiation medium comprising indicated basal medium and supplemented with VEGF (50 ng/mL), bFGF (5 ng/mL), XAV939 (5 μM) for 1 day. On Day 4 (the end of Stage 1-4), EBs were dissociated into single cells and stained with KDR-APC antibody, the percentage of KDR^+ cells were detected by flow cytometry. HP differentiation (Stage 1-5) in was initiated by adding a Stage 1-5 differentiation medium comprising indicated basal medium and supplemented with SCF (10 ng/ml), Flt3L (10 ng/ml), VEGF (15 ng/ml) and bFGF (5 ng/mL) for 3 days. On Day 7 (the end of Stage 1-5), EBs were dissociated into single cells and stained with CD34− APC antibody, the percentage of CD34^+ HP cells was detected by flow cytometry. To initiate the differentiation from HP cells into iNK cells (Stage 2), EBs were collected and seeded in 6-well-plates coated with matrix proteins, DLL4 and VCAM1, in a Stage 2 differentiation medium comprising NKSFM and supplemented with SCF (20 ng/mL), Flt3L (10 ng/mL), IL-7 (25 ng/mL, Peprotech), IL-3 (5 ng/mL, Peprotech), IL-2 (700 IU/mL), IL-15 (10 ng/mL, Peprotech) for 14 days. On Day 21 (Stage 2-wk2), derived cells were counted and stained with CD56-PE antibody, the percentage of CD56^+ iNK cells were detected by flow cytometry. […] This improvement is attributed to the addition of NAM, PLT and Heparin sodium in NKSFM as compared with IF-4.
hiPSCs were prepared as described in CN108373998B. Basal medium used during Stage 2 of differentiation was also evaluated. On Day-1, Embryoid body (EB) formation (Stage 1-1) was carried out by placing individualized hiPSCs in E8 medium containing 10 μM Blebbistatin in T25 flasks on a shaker and cultured overnight. On Day 0, lateral mesoderm differentiation (Stage 1-2) was initiated by changing the medium to a Stage 1-2 differentiation medium comprising IF-4 basal medium and supplemented with BMP4 (25 ng/mL), VEGF (15 ng/mL), bFGF (0.5 ng/mL) and CHIR99021 (4 μM) for 2 days. On Day 2, lateral mesoderm differentiation (Stage 1-3) continued for 1 day in a Stage 1-3 differentiation medium comprising IF-4 basal medium and supplemented with BMP4 (25 ng/ml), VEGF (15 ng/mL) and bFGF (0.5 ng/mL) and CHIR99021 (4 μM). On Day 3, HE specification (Stage 1-4) was initiated by adding a Stage 1-4 differentiation medium comprising IF-4 basal medium and supplemented with VEGF (15 ng/mL), bFGF (5 ng/ml), SB431542 (6 μM) for 1 day. On Day 4 (the end of Stage 1-4), EBs were dissociated into single cells and stained with KDR-APC antibody, the percentage of KDR+ cells was detected by flow cytometry. HP differentiation (Stage 1-5) in was initiated by adding a Stage 1-5 differentiation medium comprising NKSFM and supplemented with SCF (50 ng/ml), Flt3L (10 ng/mL), VEGF (15 ng/mL) and bFGF (5 ng/mL) for 5 days. […]
A general note: Flow cytometry measures light scatter and fluorescence of single cells or particles in a stream.

The test system of experiment [2] is PBNK cells. As to the kind of experiment: Expansion of PBNK cells from PBMCs (expansion fold, CD56+CD3- percentage by flow cytometry). The format is cell-based. To be noted: effect of NAM concentration (0-5 mM) in basal medium. How it is done:
The effect of the concentration of nicotinamide (NAM) in an exemplary basal medium on NK cell expansion was evaluated. The above basal medium comprised the following components: IMDM (Sigma):RPMI1640 (Gibco) (50%: 50%); about 1.3 ng/ml of Cupric sulfate, about 3 μM of Ferric sulfate, about 0.432 μg/mL of Zinc sulfate, about 1˜50 ng/ml of Na Selenite, about 110 μg/mL of Sodium pyruvate, 0.1˜20 μg/mL of Insulin, 1˜200 μg/mL of Transferrin, about 1% (v/v) of GlutaMAX-1, 0.1˜20 mg/mL of HSA, 1˜400 μM of MTG, about 80 μg/mL of Ascorbic acid and indicated concentration of NAM. Peripheral blood mononuclear cells (PBMCs) were isolated by density gradient centrifugation using Ficoll-Paque. On Day 0, PBMCs were plated at 1×10^6 cells/mL in a 48-well-plate in the basal medium with NAM (either 0, 1, 2, 2.5, 3, 3.5, 4, or 5 mM) and stimulated with the following reagents for 3 days: immobilized CD16 antibody (Biolegend, 302014) (135 ng/cm^2), IL-2 (700 IU/mL), IL-15 (10 ng/ml) and OK432 (0.01 KE/mL). On day 3, cells were re-suspended in the above basal medium supplemented with IL-2 (700 IU/mL) and IL-15 (10 ng/mL). Fresh medium was added every other day to maintain cell density below 2×10^6 cells/mL. Cells were collect on Day 14 and stained with CD56-PE and CD3-PerCP-Cy5.5 antibodies, the percentage of CD56^+CD3^− NK cells was analyzed by flow cytometry.
The effect of heparin sodium concentration in an exemplary NKSFM on NK cell expansion was also evaluated. NKSFM comprised the following components: IMDM (Sigma):DMEM/F12 (Gibco) (50%: 50%); about 20 μM of Ethanolamine, about 1˜50 ng/ml of Na Selenite, about 110 μg/mL of Sodium pyruvate, 0.1˜20 μg/mL of Insulin, 1˜200 μg/mL of Transferrin, about 1% (v/v) of GlutaMAX-1, 0.1˜20 mg/mL of Human serum albumin, 1˜400 μM of MTG, about 80 μg/mL of Ascorbic acid, about 1˜5 mM of NAM, 4% (v/v) of PLT, and indicated concentration of heparin sodium. PBMCs were isolated by density gradient centrifugation using Ficoll-Paque. On Day 0, PBMCs were plated at 1×10^6 cells/mL in a 48-well-plate in NKSFM with heparin sodium (0, 0.5, 1, 3, 10, 30, or 50 μg/mL) and stimulated with the following reagents for 3 days: immobilized CD16 antibody (Biolegend, 302014) (135 ng/cm^2), OK432 (0.01 KE/mL), NeoIL-2 (50 ng/ml), IL-12 (10 ng/mL), IL-18 (50 ng/mL). […] Cells were collect on Day 13 and stained with CD56-PE and CD3-PerCP-Cy5.5 antibodies, the percentage of CD56^+CD3^− NK cells was analyzed by flow cytometry. The specific lysis of K562 tumor cells by NK cells were assessed by CFSE/7-AAD cytotoxicity assay. […] After incubation for 4 hours, cells were stained with 7-AAD (Live/dead staining) and analyzed with flow cytometry.
The effect of PLT percentage (v/v) in an exemplary NKSFM on NK cell expansion was evaluated. […]

Setting [3] is: higher VEGF concentration during Stage 1-5.

Consider `Oc1nc(-c2ccc(C(F)(F)F)cc2)nc2c1CSCC2` [XAV939], for which, in experiment [1], the “output of CD34+ HP cells” value was “significantly promotes” and the “output of CD56+ iNK cells” value was “significantly promotes”.
Turning to `NC(=O)c1ccc(-c2nc(-c3ccc4c(c3)OCO4)c(-c3ccccn3)[nH]2)cc1` [SB431542], in experiment [1], the “output of CD34+ HP cells” value is recorded as “improvement in increasing CD34^+ HP cell production at a certain degree” and the “output of CD56+ iNK cells” value is listed as “does not show any improvement”.
As for `NC(=O)c1cccnc1` [NAM, nicotinamide], in experiment [2] (Day 14, FIG. 2A), the “NK cell expansion fold” value is reported as “significantly impacts”. Besides, the “percentage of CD56+CD3− NK cells” value in experiment [2] (Day 14, FIG. 2B) is “minimal effects”.
On to `Cc1c[nH]c(-c2cnc(NCCNc3ccc(C#N)cn3)nc2-c2ccc(Cl)cc2Cl)n1` [CHIR99021], for which the “differentiation into CD34+ HP cells” value in experiment [1] (higher concentration of CHIR99021 (5-8 μM) during Stage 1-2, FIG. 9A) is reported as “generally more advantageous”; in experiment [1] (lower concentration of CHIR99021 (0-4 μM) during Stage 1-3, FIG. 10A) it was “somewhat disadvantageous”. Further, the “differentiation into CD56+ iNK cells” value in experiment [1] (higher concentration of CHIR99021 (5-8 μM) during Stage 1-2, FIGS. 9B and 9C) is given as “somewhat disadvantageous”; in experiment [1] (lower concentration of CHIR99021 (0-4 μM) during Stage 1-3, FIGS. 10B and 10C), “generally more advantageous”.
On to VEGF, for which the “percentage of KDR+ HE cells” value in experiment [1] (different VEGF concentration (15-100 ng/mL) in Stage 1, FIG. 11A) is on record as “minimal effects”. In experiment [1] (different VEGF concentration (15-100 ng/mL) in Stage 1, FIG. 11B), the “percentage of CD34+ HP cells” value is “significantly impacts”. Moreover, in experiment [1] (different VEGF concentration (15-100 ng/mL) in Stage 1, cell morphology, FIG. 11C), the “efficiency of further differentiation into iNK cells” value is “significantly impacts”. Also, the “differentiation into HP cells and iNK cells” value in experiment [1] (higher VEGF concentration during Stage 1-2 and Stage 1-3) is “generally beneficial”. Besides, in experiment [1] (setting [3]), the “differentiation into HP cells” value was “generally beneficial” and the “differentiation into iNK cells” value was “but not into iNK cells”. Besides, in experiment [1] (higher concentration of VEGF during Stage 1, especially Stage 1-2, 1-3 and 1-4, FIG. 12), the “HP and iNK cell differentiation” value was “significantly improves”.
